For 9 compounds, IC50 results are on record in patent US20250179017A1 (GUANGDONG NEWOPP BIOPHARMACEUTICALS CO., LTD., priority 2022, published 2025).

A value given as a limit tells only on which side of the number the result lay.

The target in experiment [1] is T1, human EP4 (EP4R) (Homo sapiens, UniProt P35408).
T1 construct: Cayman Chemical (Human EP4 Reporter Assay Kit)
Briefly: EP4 antagonist assay (HEK-293 CNG membrane potential cAMP assay / 293T SEAP reporter assay, PGE2-stimulated). The experiment is classed as cell-based. Conditions: EP4 antagonist activity; concentration for inhibition of signal compared to DMSO. On the technique in general: Changes in cAMP serve as a functional read-out for many G protein-coupled receptors.

Experiment [2] concerns the target T2, human EP2 (PTGER2) (Homo sapiens, UniProt P43116).
T2 construct: Cayman Chemical (Human EP2 Reporter Assay Kit)
Description: EP2 antagonist assay (HEK-293 CNG membrane potential cAMP assay / 293T SEAP reporter assay, PGE2-stimulated). Conditions: EP2 antagonist activity; concentration for 50% inhibition of signal compared to DMSO. The experiment is classed as cell-based. Put shortly: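 HEK-293 CNG cells expressing human EP2: compound preincubated 15 min at RT, then PGE2 at 5 nM final, 30 min; membrane-potential dye fluorescence (ex 530, em 590 nm), background-subtracted, gave IC50. Alternatively, 293T cells reverse-transfected with EP2 and CRE-SEAP, compound plus 13 nM PGE2 for 6-8 h, SEAP luminescence.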

T1 sequence (P35408 whole entry): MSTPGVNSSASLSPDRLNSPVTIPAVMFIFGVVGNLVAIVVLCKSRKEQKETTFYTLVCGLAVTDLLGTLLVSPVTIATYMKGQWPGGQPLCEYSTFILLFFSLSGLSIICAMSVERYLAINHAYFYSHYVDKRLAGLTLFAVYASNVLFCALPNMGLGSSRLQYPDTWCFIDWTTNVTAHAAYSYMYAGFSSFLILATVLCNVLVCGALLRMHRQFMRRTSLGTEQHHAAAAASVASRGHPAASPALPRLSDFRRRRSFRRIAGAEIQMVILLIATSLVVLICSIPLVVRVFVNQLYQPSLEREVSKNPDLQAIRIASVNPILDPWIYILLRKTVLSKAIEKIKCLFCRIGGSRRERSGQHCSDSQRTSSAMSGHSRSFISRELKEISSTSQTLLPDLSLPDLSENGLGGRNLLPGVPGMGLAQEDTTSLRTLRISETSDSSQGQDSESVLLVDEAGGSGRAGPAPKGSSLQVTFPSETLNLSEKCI
T2 sequence (P43116 whole entry): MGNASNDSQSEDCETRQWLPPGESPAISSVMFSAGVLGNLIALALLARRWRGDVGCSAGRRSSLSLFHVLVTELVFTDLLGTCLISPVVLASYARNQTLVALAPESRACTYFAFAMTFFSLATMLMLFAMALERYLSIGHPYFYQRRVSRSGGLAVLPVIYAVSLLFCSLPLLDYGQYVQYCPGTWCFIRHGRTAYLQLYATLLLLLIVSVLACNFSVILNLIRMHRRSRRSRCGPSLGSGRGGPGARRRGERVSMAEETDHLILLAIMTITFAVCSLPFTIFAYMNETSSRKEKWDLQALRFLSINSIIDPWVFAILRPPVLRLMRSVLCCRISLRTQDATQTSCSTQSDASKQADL

For orientation: IC50 means the midpoint of a concentration-inhibition curve. Low readings indicate greater potency in that assay, high ones weaker potency in that assay. `O=C(O)c1ccc(CNC(=O)c2cc(-c3ccccc3)cc3ccn(Cc4ccc(-c5ccccc5)cc4)c23)cc1` [Example 147, 4-((1-([1,1′-biphenyl]-4-ylmethyl)-5-phenyl-1H-indole-7-carboxamido)methyl)benzoic acid]: the IC50 in experiment [1] is not above 100 nM; in experiment [2], less than 100 nM.

As for `O=C(O)c1ccc(CNC(=O)c2ccc(Nc3cc(F)cc(F)c3)c3ccn(Cc4ccc(C(F)(F)F)cc4)c23)cc1` [Example 69, 4-((4-((3,5-difluorophenyl)amino)-1-(4-(trifluoromethyl)benzyl)-1H-indole-7-carboxamido)methyl)benzoic acid], the IC50 in experiment [1] was 100 to 1000 nM; in experiment [2], less than 100 nM.

Take `O=C(O)c1ccc(CNC(=O)c2cc(-c3ccc(F)cc3)cc3ccn(Cc4cccc(Cl)c4)c23)cc1` [Example 107, 4-((1-(3-chlorobenzyl)-5-(4-fluorophenyl)-1H-indole-7-carboxamido)methyl)benzoic acid]: the IC50 was not above 100 nM in experiment [1] and less than 100 nM in experiment [2].

In the case of `C[C@H](NC(=O)c1cc(-c2ccc(F)cc2)cc2cnn(Cc3cccc(C(F)(F)F)c3)c12)c1ccc(C(=O)O)cc1` [Example 134, (S)-4-(1-(5-(4-fluorophenyl)-1-(3-(trifluoromethyl)benzyl)-1H-indazole-7-carboxamido)ethyl)benzoic acid], the IC50 in experiment [1] was not above 100 nM; in experiment [2], less than 100 nM.

On to `O=C(O)c1ccc(CNC(=O)c2cc(-c3ccccc3)cc3cnn(Cc4cccc(C(F)(F)F)c4)c23)cc1` [Example 137, 4-((5-phenyl-1-(3-(trifluoromethyl)benzyl)-1H-indazole-7-carboxamido)methyl)benzoic acid], for which the IC50 in experiment [1] was not above 100 nM; in experiment [2], less than 100 nM.

In the case of `C[C@H](NC(=O)c1cc(-c2ccc(F)cc2)cc2ccn(Cc3ccc(-c4ccccc4)cc3)c12)c1ccc(C(=O)O)cc1` [Example 151, (S)-4-(1-(1-([1,1′-biphenyl]-4-ylmethyl)-5-(4-fluorophenyl)-1H-indole-7-carboxamido)ethyl)benzoic acid], the IC50 in experiment [1] is not above 100 nM; in experiment [2], less than 100 nM.

As for `C[C@H](NC(=O)c1cc(-c2ccccc2)cc2ccn(Cc3ccc(C(F)(F)F)cc3)c12)c1ccc(C(=O)O)cc1` [Example 51, (S)-4-(1-(5-phenyl-1-(4-(trifluoromethyl)benzyl)-1H-indole-7-carboxamido)ethyl) benzoic acid], the results for the 50% inhibitory concentration (IC50) in experiment [1] and in experiment [2] were not above 100 nM and less than 100 nM, respectively.

Regarding `O=C(O)c1ccc(CNC(=O)c2cc(-c3cc(F)cc(F)c3)cc3ccn(Cc4cccc(Cl)c4)c23)cc1` [Example 106, 4-((1-(3-chlorobenzyl)-5-(3,5-difluorophenyl)-1H-indole-7-carboxamido)methyl)benzoic acid], the values for the IC50 in experiment [1] and in experiment [2] were not above 100 nM and less than 100 nM, respectively.

For `C[C@H](NC(=O)c1cc(-c2ccccc2)cc2nnn(Cc3ccc4ccccc4c3)c12)c1ccc(C(=O)O)cc1` [Example 189], the IC50 in experiment [1] is not above 100 nM; in experiment [2], less than 100 nM.
